Experimental data: patent publication US20230293517A1, “ANTAGONIST COMPOUNDS” (AdoRx Therapeutics Limited, priority 2020, published 2023)

How the values were obtained:
[1] = biological target: human Adenosine A2a receptor (Homo sapiens (Human), UniProt P29274); test: Adenosine receptor TR-FRET binding assay (A2a); details: inhibition of binding of 100 nM CA200645, CHO cell membranes
How it was run: (§1)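 Competition binding measured by TR-FRET between terbium-labelled receptors (CHO membranes, human) and fluorescent XAC, CA200645, used at 30 nM for A2b and 100 nM elsewhere. Room temperature, 2 h. Reported as Ki (Cheng–Prusoff).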

[2] = biological target: human Adenosine A3 receptor (Homo sapiens (Human), UniProt P0DMS8); test: Adenosine receptor TR-FRET binding assay (A3); details: inhibition of binding of 100 nM CA200645, CHO cell membranes
How it was run: as §1

[3] = system: human PBMCs; test: CD3/CD28 stimulated IL-2 release NECA reversal assay in human PBMCs; assay type: cell-based; details: PBMC, 1 uM NECA, 24 hours, IL-2 in culture supernatant
How it was run: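 PBMCs from citrated healthy-donor blood plated at 50,000 cells/well on 1 ug/ml CD3 antibody with 1 ug/ml CD28 antibody, 1 uM NECA and 0.003-10 μM antagonist (final), 24 h at 37° C. Supernatant IL-2 measured by MSD immunoassay; % inhibition set against no-NECA control wells as 100%.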

[4] = system: CD8+T cells in human whole blood; test: Measurement of pCREB in CD8+T cells in human whole blood; assay type: cell-based; details: 3 μM NECA, rolipram
How it was run: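 Heparinised human whole blood pre-incubated 20 min at 37 °C with serially diluted A2a antagonists plus rolipram, then stimulated 60 min with 3 μM NECA (final). After fixation and red-cell lysis, white cells were permeabilized and stained for phospho-CREB and CD8; pCREB in CD8+ T cells measured by flow cytometry.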

[5] = biological target: human Adenosine A1 receptor (Homo sapiens (Human), UniProt P30542); test: Adenosine receptor TR-FRET binding assay (A1); details: inhibition of binding of 100 nM CA200645, CHO cell membranes
How it was run: as §1

[6] = biological target: human Adenosine A2b receptor (Homo sapiens (Human), UniProt P29275); test: Adenosine receptor TR-FRET binding assay (A2b); details: TR-FRET, inhibition of binding of 30 nM CA200645, CHO cell membranes
How it was run: as §1

[7] = system: immature monocyte-derived dendritic cells (MoDC); test: MoDC pCREB assay; assay type: cell-based, human; details: Homo sapiens, Dendritic cell; pCREB in immature MoDC, 1 μM NECA, rolipram
How it was run: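 Human CD14+ monocytes differentiated 5 days into immature MoDC, pre-incubated 15 min at 37 °C with antagonist plus rolipram, then stimulated with 1 μM NECA for 45 min at 37 °C. Phospho-CREB measured by flow cytometry in gated CD209+/CD86− low cells; IC50 from the inflection point of a sigmoidal curve.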

Sequence of human Adenosine A2b receptor (P29275 whole entry): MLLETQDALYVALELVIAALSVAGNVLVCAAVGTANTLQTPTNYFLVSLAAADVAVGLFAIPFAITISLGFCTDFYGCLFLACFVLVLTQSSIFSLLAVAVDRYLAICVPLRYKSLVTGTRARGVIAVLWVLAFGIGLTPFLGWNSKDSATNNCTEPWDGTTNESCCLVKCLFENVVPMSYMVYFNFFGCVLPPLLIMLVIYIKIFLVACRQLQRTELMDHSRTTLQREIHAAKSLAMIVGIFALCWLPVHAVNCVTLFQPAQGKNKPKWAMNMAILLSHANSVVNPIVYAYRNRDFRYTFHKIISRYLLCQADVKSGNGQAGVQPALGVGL
Sequence of human Adenosine A3 receptor (P0DMS8 whole entry): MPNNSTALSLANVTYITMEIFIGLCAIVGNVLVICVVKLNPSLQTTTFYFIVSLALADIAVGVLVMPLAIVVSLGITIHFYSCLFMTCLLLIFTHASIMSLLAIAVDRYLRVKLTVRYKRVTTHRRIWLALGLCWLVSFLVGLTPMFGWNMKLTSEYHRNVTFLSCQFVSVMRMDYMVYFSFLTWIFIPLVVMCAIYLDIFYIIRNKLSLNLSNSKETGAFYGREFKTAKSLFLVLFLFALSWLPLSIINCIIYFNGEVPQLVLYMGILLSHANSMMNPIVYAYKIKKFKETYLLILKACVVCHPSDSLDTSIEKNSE
Sequence of human Adenosine A1 receptor (P30542 whole entry): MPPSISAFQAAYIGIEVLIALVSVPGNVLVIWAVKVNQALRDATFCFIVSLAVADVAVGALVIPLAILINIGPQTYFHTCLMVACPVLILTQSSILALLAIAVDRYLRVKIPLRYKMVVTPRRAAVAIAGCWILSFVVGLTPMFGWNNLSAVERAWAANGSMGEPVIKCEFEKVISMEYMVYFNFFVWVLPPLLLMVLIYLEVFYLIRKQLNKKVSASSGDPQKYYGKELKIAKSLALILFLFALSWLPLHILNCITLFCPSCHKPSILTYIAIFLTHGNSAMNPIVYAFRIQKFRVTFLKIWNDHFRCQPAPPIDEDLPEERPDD
Sequence of human Adenosine A2a receptor (P29274 whole entry): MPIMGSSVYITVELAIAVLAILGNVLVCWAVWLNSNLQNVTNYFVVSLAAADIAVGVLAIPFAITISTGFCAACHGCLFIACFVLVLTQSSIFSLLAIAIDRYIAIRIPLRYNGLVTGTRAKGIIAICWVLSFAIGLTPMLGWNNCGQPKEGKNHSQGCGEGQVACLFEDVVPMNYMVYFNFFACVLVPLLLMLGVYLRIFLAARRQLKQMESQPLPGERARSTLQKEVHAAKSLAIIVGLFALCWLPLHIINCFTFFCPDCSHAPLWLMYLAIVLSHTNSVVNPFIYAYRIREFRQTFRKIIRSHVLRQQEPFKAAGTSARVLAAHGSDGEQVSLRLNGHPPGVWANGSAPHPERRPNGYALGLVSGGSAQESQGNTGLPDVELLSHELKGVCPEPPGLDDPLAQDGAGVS

Ki [1] [nM] | Ki [2] [nM] | IC50 [4] [nM] | Ki [5] [nM] | Ki [6] [nM] | IC50 [7] [nM] | SMILES | IC50 [3] [nM]
0.47 | 292 | 230 | 49 | 2.3 | 19 | Cc1cc(-c2sc(NC(=O)N3CCC4(COC4)C3)nc2-c2cccc(C#N)c2)cc(C)n1 [Example 6.81, N-[4-(3-Cyanophenyl)-5-(2,6-dimethyl-4-pyridyl)thiazol-2-yl]-2-oxa-7-azaspiro[3.4]octane-7-carboxamide] | 7.6
0.39 | 98 | 30 | 66 | 2.6 | 11 | Cc1cc(-c2sc(NC(=O)N3CC4(CCN(C)C4=O)C3)nc2-c2cccc(C#N)c2)cc(C)n1 [Example 6.92, N-[4-(3-Cyanophenyl)-5-(2,6-dimethyl-4-pyridyl)thiazol-2-yl]-6-methyl-5-oxo-2,6-diazaspiro[3.4]octane-2-carboxamide] | 1.2
0.31 | 161 | 50 | 44 | 1.5 | 9 | Cc1cc(-c2sc(NC(=O)N3CC4(CCO4)C3)nc2-c2cccc(C#N)c2)cc(C)n1 [Example 6.93, N-[4-(3-Cyanophenyl)-5-(2,6-dimethyl-4-pyridyl)thiazol-2-yl]-1-oxa-6-azaspiro[3.3]heptane-6-carboxamide] | 1.3
0.13 | 77 | 40 | 14 | 0.7 | 8 | Cc1cc(-c2sc(NC(=O)N3CC4(COC4)C3)nc2-c2cccc(C#N)c2)cc(C(F)(F)F)n1 [Example 6.99, N-[4-(3-Cyanophenyl)-5-[2-methyl-6-(trifluoromethyl)-4-pyridyl]thiazol-2-yl]-2-oxa-6-azaspiro[3.3]heptane-6-carboxamide] | 0.7
0.37 | 615 | 10 | 24 | 2.4 | 8 | Cc1cc(-c2sc(NC(=O)N3CCC(C#N)(C#N)CC3)nc2-c2cccc(C#N)c2)cc(CO)n1 [Example 9.8] | 0.7
0.28 | 1520 | 10 | 6 | 8.4 | 55 | Cc1cc(-c2sc(NC(=O)N3CC4(COC4)C3)nc2-c2cccc(C#N)c2)cc(C(C)(C)O)n1 [Example 12.2, N-[4-(3-Cyanophenyl)-5-[2-(1-hydroxy-1-methyl-ethyl)-6-methyl-4-pyridyl]thiazol-2-yl]-2-oxa-6-azaspiro[3.3]heptane-6-carboxamide] | 0.4
0.16 | 985 | 100 | 42 | 1.6 | 13 | Cc1cc(-c2sc(NC(=O)N3CC4(COC4)C3)nc2-c2cccc(C#N)c2)cc(CF)n1 [Example 16.6] | 2.6
0.13 | 478 | 60 | 13 | 1.6 | 14 | Cc1cc(-c2sc(NC(=O)N3CC4(COC4)C3)nc2-c2cccc(C#N)c2)cc(C2CC2)n1 [Example 16.7] | 0.9
0.24 | 683 | 20 | 71 | 2.7 | 21 | Cc1cc(-c2sc(NC(=O)N3CCC(C)(C#N)CC3)nc2-c2cccc(C#N)c2)cc(CO)n1 [Example 24, 4-Cyano-N-[4-(3-cyanophenyl)-5-[2-(hydroxymethyl)-6-methyl-4-pyridyl]thiazol-2-yl]-4-methyl-piperidine-1-carboxamide] | 1.6
0.14 | 271 | 40 | 33 | 1 | 4 | Cc1cc(-c2sc(NC(=O)N3CC[C@](C)(C#N)C3)nc2-c2cccc(C#N)c2)cc(C)n1 [Example 27b, (3S)-3-cyano-N-[4-(3-cyanophenyl)-5-(2,6-dimethyl-4-pyridyl)thiazol-2-yl]-3-methyl-pyrrolidine-1-carboxamide] | 1
0.09 | 381 | 60 | 30 | 1 | 9 | [2H]C([2H])([2H])c1cc(-c2sc(NC(=O)N3CCC(C)(C#N)CC3)nc2-c2cccc(C#N)c2)cc(C([2H])([2H])[2H])n1 [Example 28, N-[5-[2,6-Bis(trideuteriomethyl)-4-pyridyl]-4-(3-cyanophenyl)thiazol-2-yl]-4-cyano-4-methyl-piperidine-1-carboxamide] | 0.4
